Test results as given in patent US5081126A, “Quinolyl- and isoquinolyl-methoxyphenyl-dithioacetyl derivatives useful as antiinflammatory agents” (Fujisawa Pharmaceutical Co., Ltd., priority 1987, dated 1992).
Structures can show the parent of a compound that is named as a salt.

The molecules below were run on SRS-A (Slow Reacting Substance of Anaphylaxis) synthesis in rat polymorpholeukocyte (PMN) (assay: Inhibiting activity of SRS-A (Slow Reacting Substance of Anaphylaxis) synthesis in rat polymorpholeukocyte (PMN) using the calcium ionophore; i-LTC4 by radioimmunoassay). Conditions: 0.25 h, 10 μM A23187, 15 min at 37° C., i-LTC4 readout.
Assay type: cell-based
Procedure: Test : Inhibiting activity of SRS-A (Slow Reacting Substance of Anaphylaxis) synthesis in rat polymorpholeukocyte (PMN) of using the calcium ionophore
Preparation of PMN from rat
Male Spraque-Dawley rats weighing 250-300 g were anesthetized with ether and each was injected intraperitoneally with 20 ml of 0.1% glycogen (from Oyster). After 20 hours the rats were sacrificed and PMN were recovered in rinse of the peritoneal cavity with 10 ml Dulbeccos PBS (components in G/L : CaCl 0.1, KH2 PO4 0.2, MgCl2.6H2 O 0.1, NaCl 8.0, Na2 HPO4.7H2 O 2.16; pH 7.4). These rinses were filtered through nylon wool filter and centrifuged for 5 min at 1000 xg. The pellet was suspended in Dulbeccos PBS and centrifuged for 5 min at 1000 xg. The pellet was resuspended in Dulbeccos PBS and adjusted the cell concentration to 10^7 cells/ml with Dulbeccos PBS.
Samples were dissolved in ethanol and dispersed in Dulbeccos PBS to give a concentration of 10^-8 to 10^-3 M. Antibiotic A23187; calcium ionophor (Dehring Diagnostics; (hereinafter referred to A23187) in DMSO (10mM) was diluted with Dulbeccos PBS tc give the concentration of 1 mM. Aliquots of the cell suspension (1×10^7 cells/ml, 0.98 ml) were equilibrated for 30 min at 37° C. Solution of sample(10 ul) was added and incubated for 15 min at 37° C. before the addition of 10 μl of A23187 solution. Thus the final incubation volume of 1 ml contained approximately 1×10^7 cells, 10^-10 to […] M samples and 10 μM A23187. Incubation with A23187 were continued for 15 min at 37° C. The reactions were terminated by setting the assay tubes in ice bath to chill as rapidly as possible to 4° C. The test tubes were centrifuged at 1500 xg for 5 min at 4° C. and decanted the supernatants into the tubes and kept cold prior to assaying.
Determination of immunoreactive LTC4 (i-LTC4)
The concentration of i-LTC4 in the cell-free supernatants from the incubations were determined by specific radioimmunoassay. The mean values of i-LTC4 (these incubations were carried out in duplicate) of each sample were calculated and the effect of samples on the synthesis of the leukotrienes was presented as a percentage of the value in the absence of samples.

| IC50 [nM] | SMILES |
| --- | --- |
| 300 | CCCSC(SCCC)c1cccc(OCc2nc3ccccc3s2)c1 [Example 1, 2-[[[3-bis(propylthio)methyl]phenoxy]methyl]benzothiazole] |
| 520 | CCCSC(SCCC)c1cccc(OCc2ccccn2)c1 [Example 2, 2-[[[3-Bis(propylthio)methyl]phenoxy]methyl]pyridine hydrochloride] |
| 39 | CCCSC(SCCC)c1cccc(OCc2ccc3ccccc3n2)c1 [Example 3, 2-[[[3-bis(propylthio)methyl]phenoxy]methyl]quinoline hydrochloride] |
| 110 | CCCSC(SCCC)c1ccc(OCc2ccc3ccccc3n2)cc1 [Example 5, 2-[[[4-Bis(propylthio)methyl]phenoxy]methyl]quinoline hydrochloride] |
| 130 | CCSC(SCC)c1cccc(OCc2ccc3ccccc3n2)c1 [Example 6, 2-[[[3-Bis(ethylthio)methyl]phenoxy]methyl]quinoline hydrochloride] |
| 160 | CCCCSC(SCCCC)c1cccc(OCc2ccc3ccccc3n2)c1 [Example 7, 2-[[[3-Bis(butylthio)methyl]phenoxy]methyl]quinoline hydrochloride] |
| 330 | CCCCCSC(SCCCCC)c1cccc(OCc2ccc3ccccc3n2)c1 [Example 8, 2-[[[3-Bis(pentylthio)methyl]phenoxy]methyl]quinoline hydrochloride] |
| 100 | CC(C)SC(SC(C)C)c1cccc(OCc2ccc3ccccc3n2)c1 [Example 9, 2-[[[3-Bis(isopropylthio)methyl]phenoxy]methyl]quinoline hydrochloride] |
| 1100 | c1ccc(SC(Sc2ccccc2)c2cccc(OCc3ccc4ccccc4n3)c2)cc1 [Example 10, 2-[[[3-Bis(phenylthio)methyl]phenoxy]methyl]quinoline hydrochloride] |
| 1400 | c1ccc(CSC(SCc2ccccc2)c2cccc(OCc3ccc4ccccc4n3)c2)cc1 [Example 11, 2-[[[3-Bis(benzylthio)methyl]phenoxy]methyl]quinoline] |
| 110 | CC(C)SC(SC(C)C)c1cccc(OCc2nc3ccccc3s2)c1 [Example 16, 2-[[[3-Bis(isopropylthio)methyl]phenoxy]methyl]benzothiazole] |
| 850 | CCCSC(SCCC)c1cccc(OCc2ncc3ccccc3n2)c1 [Example 22, 2-[[[3-Bis(propylthio)methyl]phenoxy]methyl]quinazoline hydrochloride] |
